Measured values from paper PMC12040169 (PLOS Biology, 2025).

test: in vitro; details: human, hela cells, % viability

SMILES	viability at 28.5 h, 10 µM [%]
COc1ccccc1-c1[nH]nc(O)c1Cc1c(Cl)cccc1Cl [CBK107933]	86.1
CCC1(CC)OC(NC23CC4CC(CC(O)(C4)C2)C3)=NC1=O [CBK107938]	99.1
Cc1ccc(C)c2[nH]c(=O)c(CN(CCN3CCOCC3)Cc3nnnn3Cc3ccccc3)cc12 [CBK108063]	93.1
CCc1cc2cc3c(cc2nc1SCC(=O)Nc1cc(OC)ccc1OC)OCO3 [CBK108546]	91.8
CCc1cc2cc3c(cc2nc1SCC(=O)Nc1cccc(C(C)=O)c1)OCO3 [CBK108551]	92.6
Cc1cc(C)c2cc(CN(CCO)Cc3nnnn3CC3CCCO3)c(=O)[nH]c2c1 (stereo not shown) [CBK108944]	80
CCOC(=O)Cc1csc(NC(=O)CSc2nc3cc4c(cc3cc2C)OCO4)n1 [CBK109112]	105
Cc1cccc2cc(C#N)c(NCCCn3ccnc3)nc12 [CBK109369]	77.9
O=C1c2ccccc2CN1c1cccc(Cl)c1Cl [CBK109916]	82.3
COc1ccc2c(c1OC)C(=O)N(c1cccc(/C=C/C(=O)O)c1)C2 [CBK109932]	90.3
COc1ccc2c(c1OC)C(=O)N(c1ncc(C)s1)C2 [CBK109943]	99
O=C1c2ccccc2C2OCc3ccccc3N12 (stereo not shown) [CBK109952]	105
CC(=O)OCc1nc2cc(F)c(F)cc2[nH]1 [CBK110117]	92.9
Cc1ccc(S(=O)(=O)NC(C)C(=O)Nc2cc(-c3nc4ccccc4[nH]3)ccc2C)cc1 (stereo not shown) [CBK110320]	96.2
O=[N+]([O-])c1cc([N+](=O)[O-])c2cccnc2c1NNc1nncc2ccccc12 [CBK110409]	85.1
Cc1nc2cc(Cl)ccc2n1CCO [CBK110738]	100
CCCCC(=O)NC(c1ccccc1OC)c1cc(Cl)c2cccnc2c1O (stereo not shown) [CBK110947]	84.4
O=C(C1=C(O)C(=O)N(CCCn2ccnc2)C1c1ccncc1)c1cccs1 (stereo not shown) [CBK111017]	106
O=C(CN1CCOCC1)Nc1c2c(nc3ccccc13)N(c1ccccc1)CC2 [CBK111136G]	87.9
COc1ccc2occ(C(=O)c3ccc(N)cc3)c2c1 [CBK111303]	81.8
COc1ccc(C)cc1NS(=O)(=O)CC(C)C [CBK111346]	93.8
COc1ccc(C(=O)c2c[nH]c3ccccc23)cc1 [CBK111451]	88.9
O=C(O)CCn1c(CO)nc2ccccc21 [CBK111473]	115
COCCn1nnnc1C(c1cc2cc(C)ccc2[nH]c1=O)N1CCN(C(=O)c2ccco2)CC1 (stereo not shown) [CBK111562]	80.3

SMILES	viability at 28.5 h, 10 µM [%]
O=C(CSc1nnc(-c2cccnc2)n1Cc1ccccc1)NCc1ccccc1 [CBK111647]	95.7
COc1ccc(C(=O)C(C)OC(=O)c2ccc3ccccc3n2)cc1 (stereo not shown) [CBK111937]	99
CCOC(=O)CN1N=C(C)C(Cc2c(Cl)cccc2Cl)(OC)C1=O (stereo not shown) [CBK112646]	98.1
FC(F)(F)c1cccc(-c2cnn(-c3ccc4c(c3)OCO4)n2)c1 [CBK112664]	89.6
CS(=O)(=O)c1ccc(-n2ncc(-c3cccc(C(F)(F)F)c3)n2)cc1 [CBK112672]	95.6
COc1ccc(-n2ncc(-c3ccc(C(F)(F)F)cc3)n2)cc1 [CBK112688]	92.4
CN(C)c1ccc(-n2ncc(-c3ccccc3C(F)(F)F)n2)cc1 [CBK112716]	92.4
COc1ccc(-c2cnn(-c3cncnc3)n2)cc1 [CBK112763]	94.5
COc1ccc(-c2cnn(-c3ccc(OC(F)(F)F)cc3)n2)cc1 [CBK112773]	87.6
Oc1ccc(-n2ncc(-c3ccc(Cl)cc3)n2)cc1 [CBK112794]	86.8
NC(=O)c1cccc(-n2ncc(-c3cccnc3)n2)c1 [CBK112806]	81.6
CC(=O)Nc1cccc(-n2ncc(-c3cccnc3)n2)c1 [CBK112811]	98.7
COc1cccc(-n2ncc(-c3cccnc3)n2)c1 [CBK112813]	89.9
Clc1ccc(-n2ncc(-c3cccnc3)n2)cc1Cl [CBK112814]	101
c1cncc(-c2cnn(-c3ccc4[nH]ccc4c3)n2)c1 [CBK112820]	85.7
O=S1(=O)CCN(Cc2cnn(-c3cncnc3)n2)CC1 [CBK112878]	100
O=S1(=O)CCN(Cc2cnn(-c3ccc(OC(F)(F)F)cc3)n2)CC1 [CBK112883]	95.3
CC(=O)c1ccc(-n2ncc(-c3ccc(F)cc3)n2)cc1 [CBK112889]	100
Oc1ccc(-n2ncc(-c3ccc(F)cc3)n2)cc1 [CBK112904]	79.7
COc1ccc(-n2ncc(-c3ccc(Br)cc3F)n2)cc1OC [CBK112915]	96.9
COC(=O)c1ccc(-n2cc(-c3cccc(C(F)(F)F)c3)nn2)cc1 [CBK112936]	90
COc1ccc(-n2cc(-c3ccc(C(F)(F)F)cc3)nn2)cc1OC [CBK112952]	96.8
N#Cc1cccc(-n2cc(-c3ccc(C(F)(F)F)cc3)nn2)c1 [CBK112957]	88.1
COc1ccc(-n2cc(-c3ccccc3C(F)(F)F)nn2)cc1OC [CBK112965]	89.4

SMILES	viability at 28.5 h, 10 µM [%]
Oc1ccc(-n2cc(-c3ccccc3C(F)(F)F)nn2)cc1 [CBK112971]	95.5
N#Cc1ccc(-n2cc(-c3ccc(F)cc3F)nn2)cc1 [CBK112990]	98.3
COc1ccc(-c2cn(-c3ccc(OC)c(OC)c3)nn2)cc1 [CBK113001]	121
COc1ccc(-c2cn(-c3cccc(NC(C)=O)c3)nn2)cc1 [CBK113008]	97.2
COc1ccc(-c2cn(-c3ccc(OC(F)(F)F)cc3)nn2)cc1 [CBK113024]	110
Clc1ccc(-c2cn(-c3cnc4ccccc4c3)nn2)cc1 [CBK113044]	94.8
Cc1ccc(Cl)cc1-n1cc(-c2ccc(Cl)cc2)nn1 [CBK113045]	82.4
NC(=O)c1ccc(-n2cc(-c3ccc(Cl)cc3)nn2)cc1 [CBK113046]	93.4
Fc1ccc(-n2cc(-c3cccnc3)nn2)cc1F [CBK113055]	89.3
CS(=O)(=O)c1ccc(-n2cc(-c3cccnc3)nn2)cc1 [CBK113061]	104
NC(=O)c1cccc(-n2cc(-c3ccsc3)nn2)c1 [CBK113076]	86.4
Oc1ccc(-n2cc(-c3ccsc3)nn2)cc1 [CBK113093]	84.6
COc1ccc(-n2cc(-c3ccc(F)cc3)nn2)cc1OC [CBK113110]	89.8
Fc1ccc(-c2cn(-c3ccc(OCc4ccccc4)c(F)c3)nn2)cc1 [CBK113121]	99
Oc1ccc(-n2cc(-c3ccc(F)cc3)nn2)cc1 [CBK113126]	82
Cc1ccc(Cl)cc1-n1cc(-c2ccc(F)cc2)nn1 [CBK113128]	98.9
N#Cc1cccc(-n2cc(-c3ccc(Br)cc3F)nn2)c1 [CBK113143]	95.4
Fc1cc(Br)ccc1-c1cn(-c2ccc(Oc3ccccc3)cc2)nn1 [CBK113145]	89.5
C=CCC1c2cccc(C(=O)O)c2C(=O)N1c1ccc(F)cc1 (stereo not shown) [CBK113158]	94.1
C=CCC1c2cccc(C(=O)O)c2C(=O)N1c1cccc(OC)c1 (stereo not shown) [CBK113160]	96.7
COc1ccc(OC)c(N2Cc3ccc(OC)c(OC)c3C2=O)c1 [CBK113161]	82.9
COc1cc(NS(=O)(=O)c2cc(C(=O)O)c(Cl)cc2Cl)cc(OC)c1 [CBK113162]	98.9
O=C(O)c1ccc(NS(=O)(=O)c2cc(C(=O)O)ccc2Br)cc1 [CBK113164]	106
Cc1ccc(-c2nsc(SCC(=O)c3ccc(Cl)cc3)n2)cc1 [CBK113177]	92.1

SMILES	viability at 28.5 h, 10 µM [%]
O=C1c2ccccc2CN1c1nccs1 [CBK113184]	84.8
COC(=O)c1ccc(S(N)(=O)=O)o1 [CBK113186]	105
O=C1c2ccccc2S(=O)(=O)N1c1ccc(F)cc1 [CBK113194]	112
N#Cc1ccc(N2C(=O)c3ccccc3S2(=O)=O)cc1 [CBK113195]	113
CCOC(=O)Cn1nc(CC)c(Cc2c(Cl)cccc2Cl)c1C [CBK113222]	122
COc1ccc(C(=O)Nc2nsc(-c3ccccc3)n2)cc1 [CBK113233]	97.2
O=C(Nc1nc(-c2ccccc2)ns1)c1ccncc1 [CBK113234]	81.6
O=C1c2ccccc2C(Nc2cccnc2)N1c1ccccn1 (stereo not shown) [CBK113239]	80.5
Cc1[nH]c(=O)[nH]c(=O)c1Cc1ccccc1 [CBK113244]	113
Cc1ccc(NC(=O)c2c[nH]c(=O)[nH]c2=O)cc1 [CBK113246]	95.7
O=c1[nH]c(=S)[nH]c2c1CCC2 [CBK113252]	92.4
CCN(CC)CCCCC1(C)SC(NC2CCCCCC2)=NC1=O (stereo not shown) [CBK113257]	96.9
O=C1S/C(=C/c2ccc(Cl)cc2)C(=O)N1c1ccc(F)cc1 [CBK113265]	102
CC(C)Nc1cc(OC2CCN(C)CC2)ncn1 [CBK113280]	83.6
FC(F)(F)c1ccc(OC2CCNCC2)nc1 [CBK113287]	83
CN1CCN(C)C(COc2ccc(C(F)(F)F)cn2)C1 (stereo not shown) [CBK113288]	96.8
FC(F)(F)c1cccc(OCCN2CCNCC2)n1 [CBK113291]	91.5
CN1CCN(C)C(COc2cccc(C(F)(F)F)n2)C1 (stereo not shown) [CBK113292]	106
FC(F)(F)c1ccnc(OC2CCNCC2)n1 [CBK113294]	118
FC(F)(F)c1ccnc(OC2CCNC2)n1 (stereo not shown) [CBK113296]	92.1
CN1CCN(C)C(COc2nccc(C(F)(F)F)n2)C1 (stereo not shown) [CBK113298]	95.2

same assay, conditions: human, hela cells, % viability, bulk resorufin, single well

SMILES	viability at 28.5 h, 10 µM [%]
Cc1nc2ccc(NC(=O)Nc3cccc(-c4ccc5c(c4)COC4(CCNCC4)O5)c3)cc2o1 [CBK113206]	101
